According to patent publication US10538487B2, “Sulfonylureas and related compounds and use of same” (priority 2015, dated 2020):
Values joined by “and” are separate entries in the source; they are usually repeats but may differ in a detail not shown here. Equal values may be shown once.

Experiment: Single dose pharmacokinetic study in mice (iv 4 mg/Kg, po 20 mg/Kg), plasma concentration post-dosing
Assay type: in vivo, mouse
Details: mouse
Description: This is advantageous leading to comparatively lower doses or less frequent administration. The procedure followed was: Male C57BL/6 mice were used at 7-9 weeks age with 3 animals per group. Mice were dosed with test compound using single intravenous bolus or oral gavage. Blood samples were taken via submandibular or saphenous vein for analysis of plasma concentrations of compound by LC-MS/MS at the following timepoints: IV (3 mice): 0.083, 0.25, 0.5, 1, 2, 4, 8 and 24 hours post dosing, PO (3 mice): 0.25, 0.5, 1, 2, 4, 8 and 24 hours post dosing. LC-MS/MS method for the quantitative determination of test compound in corresponding biological matrix was developed. […] The results are shown graphically in FIGS. 1A to 1C (MCC950) and FIGS. 2A to 2C (MCC7840).

[1] = IV 4 mg/Kg, individual mice M1-M3, 4 mg/kg
[2] = PO 20 mg/Kg, individual mice M4-M6, 20 mg/kg

MRT last (male, C57BL/6, mouse, plasma, po, 20 mg/kg, PO 20 mg/Kg, mean of 3 mice, read-out: MRT0-last, Mean PO): 6.43 h | half-life (male, C57BL/6, mouse, plasma, po, 20 mg/kg, PO 20 mg/Kg, mean of 3 mice, read-out: T1/2, Mean PO (converted)): 5.02 h | Tmax (male, C57BL/6, mouse, plasma, po, 20 mg/kg, PO 20 mg/Kg, mean of 3 mice, read-out: Tmax, Mean PO): 0.25 h | bioavailability (male, C57BL/6, plasma, PO 20 mg/Kg vs IV 4 mg/Kg, Mean PO, read-out: Bioavailability): 67.2% | Plasma concentration, IV Time 5 min (IV 4 mg/Kg, 5 min post dosing, individual mice M1-M3, 4 mg/kg): 41900 ng/mL and 38600 ng/mL | Plasma concentration, IV Time 0.250 h (IV 4 mg/Kg, 0.250 h post dosing, individual mice M1-M3, 4 mg/kg): 29300 ng/mL | Plasma concentration, IV Time 0.500 h (IV 4 mg/Kg, 0.500 h post dosing, individual mice M1-M3, 4 mg/kg): 25200 ng/mL and 24500 ng/mL | Plasma concentration, IV Time 1.00 h (IV 4 mg/Kg, 1.00 h post dosing, individual mice M1-M3, 4 mg/kg): 18900 ng/mL and 17200 ng/mL | Plasma concentration, IV Time 2.00 h (IV 4 mg/Kg, 2.00 h post dosing, individual mice M1-M3, 4 mg/kg): 14700 ng/mL and 19900 ng/mL | Plasma concentration, IV Time 4.00 h (IV 4 mg/Kg, 4.00 h post dosing, individual mice M1-M3, 4 mg/kg): 8550 ng/mL and 8590 ng/mL | Plasma concentration, IV Time 8.00 h (IV 4 mg/Kg, 8.00 h post dosing, individual mice M1-M3, 4 mg/kg): 3360 ng/mL and 4440 ng/mL | Plasma concentration, IV Time 24.0 h (IV 4 mg/Kg, 24.0 h post dosing, individual mice M1-M3, 4 mg/kg): 122 ng/mL and 130 ng/mL | Tlast (IV 4 mg/Kg, individual mice M1-M3): 24.0 h | AUC0-inf [1]: 105.283 µg·h/mL and 116.833 µg·h/mL | AUC0-last [1]: 104.705 µg·h/mL and 116.222 µg·h/mL | AUCExtra [1]: 0.770% and 0.549% and 0.523% | AUMCExtra [1]: 5.23% and 3.81% and 3.41% | C0 [1]: 50100 ng/mL and 44301 ng/mL | Cl [1]: 0.633 mL/min/kg and 0.571 mL/min/kg | MRT0-inf [1]: 4.15 h and 4.40 h | MRT0-last [1]: 4.01 h and 4.28 h | T1/2 [1]: 3.29 h and 3.26 h | Vdss [1]: 0.158 L/kg and 0.151 L/kg | AUCExtra, Mean IV (IV 4 mg/Kg, mean of 3 mice): 0.614% | AUMCExtra, Mean IV (IV 4 mg/Kg, mean of 3 mice): 4.15% | C0, Mean IV (IV 4 mg/Kg, mean of 3 mice): 52245 ng/mL | Tlast, Mean IV (IV 4 mg/Kg, mean of 3 mice): 24.0 h | Plasma concentration, PO Time 24.0 h (PO 20 mg/Kg, 24.0 h post dosing, individual mice M4-M6, 20 mg/kg): 660 ng/mL and 2370 ng/mL and 1370 ng/mL | Tlast (PO 20 mg/Kg, individual mice M4-M6): 24.0 h | AUC0-inf [2]: 251.697 µg·h/mL and 466.063 µg·h/mL | AUCExtra [2]: 0.922% and 9.94% and 1.77% | AUMCExtra [2]: 5.35% and 32.1% and 7.78% | MRT0-last [2]: 8.07 h and 6.41 h | T1/2 [2]: 3.57 h and 7.31 h and 4.18 h | AUCExtra, Mean PO (PO 20 mg/Kg, mean of 3 mice): 4.21% | AUMCExtra, Mean PO (PO 20 mg/Kg, mean of 3 mice): 15.1% | Tlast, Mean PO (PO 20 mg/Kg, mean of 3 mice): 24.0 h
Structure (SMILES): CC(C)n1ccc(S(=O)(=O)NC(=O)Nc2c3c(cc4c2CCC4)CCC3)n1 [MCC_007840_002]
Plasma concentration, PO Time 0.250 h (PO 20 mg/Kg, 0.250 h post dosing, individual mice M4-M6, 20 mg/kg): 84300 ng/mL and 27400 ng/mL and 69700 ng/mL | Plasma concentration, PO Time 0.500 h (PO 20 mg/Kg, 0.500 h post dosing, individual mice M4-M6, 20 mg/kg): 70300 ng/mL and 24000 ng/mL and 56600 ng/mL | Plasma concentration, PO Time 1.00 h (PO 20 mg/Kg, 1.00 h post dosing, individual mice M4-M6, 20 mg/kg): 60400 ng/mL and 20900 ng/mL and 45700 ng/mL | Plasma concentration, PO Time 2.00 h (PO 20 mg/Kg, 2.00 h post dosing, individual mice M4-M6, 20 mg/kg): 54900 ng/mL and 19100 ng/mL and 53800 ng/mL | Plasma concentration, PO Time 4.00 h (PO 20 mg/Kg, 4.00 h post dosing, individual mice M4-M6, 20 mg/kg): 32900 ng/mL and 14100 ng/mL and 32800 ng/mL | Plasma concentration, PO Time 8.00 h (PO 20 mg/Kg, 8.00 h post dosing, individual mice M4-M6, 20 mg/kg): 14100 ng/mL and 12800 ng/mL and 29900 ng/mL | AUC0-last [2]: 364.947 µg·h/mL and 226.687 µg·h/mL and 457.808 µg·h/mL | Cmax [2]: 84300 ng/mL and 27400 ng/mL and 69700 ng/mL
